This note sets out measurements from US6579888B2, “Method and kit for treating illnesses” (Opt-e-scrip, Inc., priority 1994, dated 2003).

The test system of series [1] is hyperactive child (Minimum Brain Dysfunction). The experiment in a line: SPAS single-patient random double-blind crossover trial of methylphenidate versus placebo. The procedure: In this example, the usefulness of methylphenidate (Ritalin) treatment in a hyperactive child (Minimum Brain Dysfunction) is evaluated.
Technology: Consists of instructions, “calendar” packaging for drug and a substantially identical looking placebo to assure appropriate dosing and monitor compliance, questionnaire assessment forms and instructions. […] Results are mailed to the physician and, in this case, parent for use in evaluating the usefulness of the therapy. The physician and parent are contacted, e.g., every three months to provide data on therapies utilized, and perceived outcome, until the condition resolves.
The questionnaire portion of the kit includes an initial consent form for the parent or guardian to complete. The questionnaire also provides background information on the study and possible side effects associated with the medication. Also included therein is a portion for providing relevant patient and family histories. More importantly, the questionnaire, in this case includes a portion for the weekly input by parents or guardian and school observers of answers to questions relating to the drug evaluation. Typical questionnaire sheet for these portions are shown below as Table 1 and Table 2. Physician questionnaires are similarly arranged.
The trial calls for 40 mg daily given at 10 mg four times daily compared to identical appearing placebo given four times daily.

Series [2] concerns patients with the same disorder (hyperactive child). The experiment in a line: Pooled SPAS data and monthly follow-up of patients with the same disorder continued on methylphenidate. It is filed as in vivo, human. As for the experimental part: All results obtained from the data are then compared against the results provided by data amassed from a pool of about 200 patients with the same disorder. Of these 200 patients, 55 experienced encouraging results (as did the current patient) and were continued on 40 mg daily treatment. Of these 55 patients, 5 were lost to follow-up, with 50 remaining for prospective evaluation. Because the physician would now choose to continue the patient on 40 mg methylphenidate daily based solely on the isolated SPAS single patient drug trial results, they now take the opportunity of reviewing the pooled data on the 50 patients. This is done to understand under what circumstances this individual patient would likely continue to show benefit from methylphenidate 40 mg treatment, and what conditions lead to treatment failure.
The pool of 50 patients who continued treatment had the following scores following the original SPAS testing:
All 50 patients were followed up by telephone interview monthly for nine months or more, and outcomes were prospectively documented.

A further series relates to hypertensive person. The experiment in a line: Six-week random double-blind trial of sustained release verapamil as therapeutic alternative to sustained release propranolol. The format is in vivo, human. The note with it: verapamil SR 240 mg once daily versus propranolol SR 180 mg once daily; end of six-week trial; statistically insignificant. As for the experimental part: In this example, the validity of using a sustained release formulation of verapamil 240 mg once daily as a therapeutic alternative to sustained release propranolol 180 mg once daily in a hypertensive person is shown. The trial during which the two medications are randomly administered in a double-blind manner is six weeks. The questionnaire used is set up in a manner similar to that described in above examples except that the questions elicit information related to the disease of hypertension. Blood pressure is taken daily by the patient and weekly by the physician. Lab values and vision tests are also reported weekly by the physician. […] Both values are statistically insignificant and the therapeutic alternative selection is objectively validated.

Where [3] appears, read: patients with statistically altered sleep patterns, continued 40 mg daily.
[4] abbreviates: pool of 50 patients, original SPAS testing.

`COC(=O)C(c1ccccc1)C1CCCCN1` (stereo not shown) [methylphenidate]: the “patient's attention span” value in series [1] (40 mg daily (10 mg four times daily), methylphenidate periods versus placebo periods) is “improved substantially”. Besides, the teacher comments result in series [1] (40 mg daily, methylphenidate dosing periods) was “corroborate improved attention span”. In addition, the sleep patterns entry in series [1] (40 mg daily, methylphenidate periods) is reported as “statistically altered”. The “outcome on continued treatment, patients with no statistically altered sleep disturbances” value in series [2] (40 mg daily, monthly follow-up for nine months or more) was “continued to be well maintained on treatment”. Also, the “outcome on continued treatment, patients with statistically altered sleep patterns” value in series [2] (40 mg daily, within two months) is “showed loss of symptom control”. In series [2] (all patients with a statistically altered sleep disturbance), the discontinuation from treatment result is reported as “had to be discontinued from treatment within two months”. Moreover, in series [2] (of a pool of about 200 patients, 40 mg daily), the “patients who experienced encouraging results and were continued on treatment” value was determined as 55 patients. Moreover, in series [2] (setting [3]), the “patients who experienced a grand mal seizure” value is on record as “two” and the “severe episodes of bizarre behaviors / severe adverse event” value is given as 90%. Moreover, the “Attention Span: patients who had substantial improvement” value in series [2] (pool of 50 patients who continued treatment, original SPAS testing) is recorded as 100% had substantial. Further, in series [2] (setting [4]), the “Sleep Patterns: patients not statistically altered” value is 50% were not statistically, the “Sleep Patterns: patients statistically altered” value is listed as 50% were statistically altered, the “Teacher Comments: corroborate improved attention span” value was determined as 80% corroborate improved and the “Teacher Comments: did not corroborate improved attention span” value amounted to 20% did not corroborate.

For `COc1ccc(CCN(C)CCCC(C#N)(c2ccc(OC)c(OC)c2)C(C)C)cc1OC` (stereo not shown) [verapamil], in the series with hypertensive person, the mean diastolic pressure result is given as “essentially stable” and the “mean systolic blood pressure increase” value came out at 3%.
